# Data from publication PMC5329131 (Biochimica et biophysica acta, 2017).
# Where no end group is shown, it is not given here.
# How the values were obtained:
# [1] = test system: rabbit skeletal heavy SR vesicles (RyR1); assay: Ca2+ release from heavy SR vesicles; assay type: biochemical; details: for Ca2+ release by vesicles (quality control): response to caffeine, 4-cmc and A23187; for Ca2+ release by RyR agonists vs A23187: same vesicles, data not shown
# [2] = target: RyR1 (Oryctolagus cuniculus) (UniProt P11716); assay: [3H]ryanodine binding; details: cited from earlier work
# RyRs = details: cited from earlier work
# RyR1 = details: alanine scanning of Imperacalcin; ref Lee et al., 2004; cited from earlier work
# SR Ca2+ release (RyR1) = details: ref Xiao et al., 2016; cited from earlier work
# Chain of UniProt P11716 (P11716 whole entry): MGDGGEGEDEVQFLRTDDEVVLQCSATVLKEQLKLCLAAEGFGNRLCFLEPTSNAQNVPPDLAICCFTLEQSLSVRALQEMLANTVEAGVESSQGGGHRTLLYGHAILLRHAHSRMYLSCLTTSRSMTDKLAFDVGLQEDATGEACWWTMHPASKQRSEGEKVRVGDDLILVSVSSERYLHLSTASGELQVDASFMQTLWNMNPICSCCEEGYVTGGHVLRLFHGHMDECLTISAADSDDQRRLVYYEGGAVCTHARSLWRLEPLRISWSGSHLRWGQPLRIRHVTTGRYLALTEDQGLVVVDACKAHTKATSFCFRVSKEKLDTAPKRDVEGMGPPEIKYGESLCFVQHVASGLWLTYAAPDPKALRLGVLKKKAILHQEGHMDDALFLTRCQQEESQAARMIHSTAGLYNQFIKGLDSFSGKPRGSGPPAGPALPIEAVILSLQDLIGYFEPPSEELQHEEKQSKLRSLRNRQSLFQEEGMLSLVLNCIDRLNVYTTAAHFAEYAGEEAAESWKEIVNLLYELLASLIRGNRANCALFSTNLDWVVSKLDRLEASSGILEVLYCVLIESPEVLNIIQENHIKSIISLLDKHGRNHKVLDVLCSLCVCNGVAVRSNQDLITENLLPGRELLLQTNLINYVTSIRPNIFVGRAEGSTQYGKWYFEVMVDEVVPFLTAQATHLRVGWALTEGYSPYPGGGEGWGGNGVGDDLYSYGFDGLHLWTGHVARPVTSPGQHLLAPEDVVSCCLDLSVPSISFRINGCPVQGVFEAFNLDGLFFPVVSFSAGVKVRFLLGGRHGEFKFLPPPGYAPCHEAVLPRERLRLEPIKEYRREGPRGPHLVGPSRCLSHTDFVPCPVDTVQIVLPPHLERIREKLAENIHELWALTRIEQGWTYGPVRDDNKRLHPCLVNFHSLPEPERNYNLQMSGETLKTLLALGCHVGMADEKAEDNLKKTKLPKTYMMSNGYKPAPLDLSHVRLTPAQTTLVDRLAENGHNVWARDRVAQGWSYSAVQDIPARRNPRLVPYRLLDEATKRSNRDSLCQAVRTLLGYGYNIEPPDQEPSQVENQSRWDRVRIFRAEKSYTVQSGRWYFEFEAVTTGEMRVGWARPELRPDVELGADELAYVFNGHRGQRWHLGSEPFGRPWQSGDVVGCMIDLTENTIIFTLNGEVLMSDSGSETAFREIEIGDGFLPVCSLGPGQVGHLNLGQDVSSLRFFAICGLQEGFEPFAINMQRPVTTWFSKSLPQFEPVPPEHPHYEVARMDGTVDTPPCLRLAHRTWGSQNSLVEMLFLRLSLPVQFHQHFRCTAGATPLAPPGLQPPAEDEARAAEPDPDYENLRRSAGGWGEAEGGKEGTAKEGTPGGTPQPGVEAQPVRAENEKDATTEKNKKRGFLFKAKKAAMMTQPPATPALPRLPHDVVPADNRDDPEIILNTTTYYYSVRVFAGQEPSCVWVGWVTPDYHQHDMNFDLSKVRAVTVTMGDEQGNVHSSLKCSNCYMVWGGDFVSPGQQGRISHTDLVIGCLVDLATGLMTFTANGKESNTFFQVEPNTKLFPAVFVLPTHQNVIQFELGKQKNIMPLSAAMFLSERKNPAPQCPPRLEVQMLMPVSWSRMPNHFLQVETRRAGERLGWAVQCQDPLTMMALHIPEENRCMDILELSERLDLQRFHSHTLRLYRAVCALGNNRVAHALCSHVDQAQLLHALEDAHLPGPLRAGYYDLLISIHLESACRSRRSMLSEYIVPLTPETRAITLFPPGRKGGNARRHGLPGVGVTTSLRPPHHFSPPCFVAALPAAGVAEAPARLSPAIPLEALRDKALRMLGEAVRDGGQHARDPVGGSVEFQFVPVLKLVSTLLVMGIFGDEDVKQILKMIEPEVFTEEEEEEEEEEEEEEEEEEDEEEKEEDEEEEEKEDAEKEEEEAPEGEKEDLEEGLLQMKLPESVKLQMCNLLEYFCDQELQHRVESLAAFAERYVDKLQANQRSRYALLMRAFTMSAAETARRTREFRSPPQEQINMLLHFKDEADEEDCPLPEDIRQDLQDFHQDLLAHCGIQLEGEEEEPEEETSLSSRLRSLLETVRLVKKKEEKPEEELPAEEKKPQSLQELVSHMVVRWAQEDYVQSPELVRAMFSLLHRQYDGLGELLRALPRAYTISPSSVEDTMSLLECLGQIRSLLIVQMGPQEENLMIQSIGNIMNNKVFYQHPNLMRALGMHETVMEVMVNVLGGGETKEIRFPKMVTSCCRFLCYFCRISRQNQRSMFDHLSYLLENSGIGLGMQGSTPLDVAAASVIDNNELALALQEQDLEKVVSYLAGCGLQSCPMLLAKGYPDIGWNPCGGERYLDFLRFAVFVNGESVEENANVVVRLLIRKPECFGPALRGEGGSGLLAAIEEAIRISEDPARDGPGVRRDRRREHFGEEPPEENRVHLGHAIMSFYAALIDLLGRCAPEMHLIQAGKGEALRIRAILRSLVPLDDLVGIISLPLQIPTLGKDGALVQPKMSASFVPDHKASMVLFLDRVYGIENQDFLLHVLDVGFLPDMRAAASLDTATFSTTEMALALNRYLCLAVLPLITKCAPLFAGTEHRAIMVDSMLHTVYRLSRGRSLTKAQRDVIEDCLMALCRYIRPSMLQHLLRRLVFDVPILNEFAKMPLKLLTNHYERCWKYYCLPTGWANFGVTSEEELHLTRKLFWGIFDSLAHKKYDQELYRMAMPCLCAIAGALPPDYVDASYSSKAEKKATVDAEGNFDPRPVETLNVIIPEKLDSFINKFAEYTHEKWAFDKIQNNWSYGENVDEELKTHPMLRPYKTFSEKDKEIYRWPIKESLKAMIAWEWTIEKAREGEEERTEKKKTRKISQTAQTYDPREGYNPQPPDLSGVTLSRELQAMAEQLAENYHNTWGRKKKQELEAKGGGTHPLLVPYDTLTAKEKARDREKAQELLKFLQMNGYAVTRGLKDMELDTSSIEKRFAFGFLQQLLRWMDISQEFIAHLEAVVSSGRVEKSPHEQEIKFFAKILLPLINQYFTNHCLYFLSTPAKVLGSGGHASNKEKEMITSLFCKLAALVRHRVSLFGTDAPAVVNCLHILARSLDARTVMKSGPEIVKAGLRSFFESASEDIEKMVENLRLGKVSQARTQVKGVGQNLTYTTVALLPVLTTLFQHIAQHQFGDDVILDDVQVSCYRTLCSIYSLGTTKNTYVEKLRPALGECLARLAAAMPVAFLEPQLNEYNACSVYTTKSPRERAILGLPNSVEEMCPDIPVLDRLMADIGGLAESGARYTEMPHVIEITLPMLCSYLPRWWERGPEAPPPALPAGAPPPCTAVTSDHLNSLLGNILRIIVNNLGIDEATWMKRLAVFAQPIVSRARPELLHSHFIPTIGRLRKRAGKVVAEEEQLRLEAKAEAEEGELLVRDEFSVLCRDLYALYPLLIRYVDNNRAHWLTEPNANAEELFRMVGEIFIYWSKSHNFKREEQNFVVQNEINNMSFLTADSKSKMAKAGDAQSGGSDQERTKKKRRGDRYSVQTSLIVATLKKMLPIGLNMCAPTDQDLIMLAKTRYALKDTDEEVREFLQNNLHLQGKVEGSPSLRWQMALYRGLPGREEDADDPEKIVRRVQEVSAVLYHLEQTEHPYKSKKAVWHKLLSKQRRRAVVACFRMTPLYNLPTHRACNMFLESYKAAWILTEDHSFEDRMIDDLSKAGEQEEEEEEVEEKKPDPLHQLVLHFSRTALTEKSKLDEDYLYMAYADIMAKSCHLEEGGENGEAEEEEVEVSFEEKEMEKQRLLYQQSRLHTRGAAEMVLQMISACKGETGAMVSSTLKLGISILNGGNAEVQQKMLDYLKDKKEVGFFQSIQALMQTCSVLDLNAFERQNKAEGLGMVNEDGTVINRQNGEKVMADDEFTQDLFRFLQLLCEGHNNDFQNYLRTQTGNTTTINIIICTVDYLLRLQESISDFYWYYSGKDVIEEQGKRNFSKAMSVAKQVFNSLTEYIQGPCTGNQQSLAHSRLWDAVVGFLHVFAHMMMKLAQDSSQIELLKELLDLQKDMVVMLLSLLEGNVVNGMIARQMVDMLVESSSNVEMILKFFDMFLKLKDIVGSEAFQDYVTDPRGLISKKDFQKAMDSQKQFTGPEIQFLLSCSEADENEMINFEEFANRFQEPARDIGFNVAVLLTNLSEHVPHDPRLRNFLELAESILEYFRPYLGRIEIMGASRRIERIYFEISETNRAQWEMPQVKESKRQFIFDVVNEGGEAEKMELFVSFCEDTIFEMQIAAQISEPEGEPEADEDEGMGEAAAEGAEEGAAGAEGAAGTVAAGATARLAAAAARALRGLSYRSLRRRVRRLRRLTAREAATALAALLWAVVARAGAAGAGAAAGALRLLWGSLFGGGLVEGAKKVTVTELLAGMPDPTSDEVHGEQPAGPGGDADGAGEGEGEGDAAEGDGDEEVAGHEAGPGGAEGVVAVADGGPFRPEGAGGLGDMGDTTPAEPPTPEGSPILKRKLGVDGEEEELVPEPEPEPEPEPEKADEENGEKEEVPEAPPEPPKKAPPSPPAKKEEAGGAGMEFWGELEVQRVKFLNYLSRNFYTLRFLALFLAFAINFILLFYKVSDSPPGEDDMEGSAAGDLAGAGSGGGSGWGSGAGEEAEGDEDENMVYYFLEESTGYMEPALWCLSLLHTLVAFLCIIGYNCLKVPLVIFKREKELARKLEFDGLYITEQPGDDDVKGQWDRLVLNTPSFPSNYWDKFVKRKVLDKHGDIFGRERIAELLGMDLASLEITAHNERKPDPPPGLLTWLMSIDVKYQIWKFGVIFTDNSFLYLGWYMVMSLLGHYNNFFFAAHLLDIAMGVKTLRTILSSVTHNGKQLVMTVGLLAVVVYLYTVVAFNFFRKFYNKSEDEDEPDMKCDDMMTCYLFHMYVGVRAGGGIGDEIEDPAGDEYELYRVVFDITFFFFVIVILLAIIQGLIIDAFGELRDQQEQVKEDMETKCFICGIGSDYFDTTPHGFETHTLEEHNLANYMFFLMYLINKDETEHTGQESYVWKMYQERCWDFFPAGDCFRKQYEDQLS
molecule,measurement,setting,value
Cc1cc(O)ccc1Cl [4-cmc],Ca2+ release by vesicles (quality control),[1],equivalent amount of Ca^2+
same,Ca2+ release by RyR agonists vs A23187,[1],release roughly equivalent levels of Ca^2+ in these vesicles as that emptied by A23187
CNc1ccc2oc(C[C@H]3O[C@@]4(CC[C@H]3C)O[C@H]([C@H](C)C(=O)c3ccc[nH]3)[C@H](C)C[C@H]4C)nc2c1C(=O)O [A23187],Ca2+ release by vesicles (quality control),[1],equivalent amount of Ca^2+
"Cn1c(=O)c2c(ncn2C)n(C)c1=O [Caffeine, caffeine]",Ca2+ release by vesicles (quality control),[1],equivalent amount of Ca^2+
same,Ca2+ release by RyR agonists vs A23187,[1],release roughly equivalent levels of Ca^2+ in these vesicles as that emptied by A23187
Hadrucalcin (from UniProt B8QG00),Kd,[2],14.8 nM
Hemicalcin (from UniProt A0A1L4BJ42),Kd,[2],6.9 nM
Imperacalcin (from UniProt P59868),Kd,[2],8.7 nM
"Imperacalcin: 33-amino acid calcin from Pandinus imperator, UniProt P59868 (GDCLPHLKRCKADNDCCGKKCKRRGTNAEKRCR; ends and bridges not checked; cysteine pairing not given here; UniProt P59868 1-33, looked up)",binding site by single RyR1 channel analysis,"RyRs; ref Tripathy et al., 1998",enters the channel vestibule and binds to a single site located within the ion conduction pathway and close to the voltage drop of the channel
same,effect on RyR gating,RyRs; ref not given,increases their activity by inducing the appearance of a long-lived subconductance state
Maurocalcin (from UniProt P60254),Kd,[2],26.4 nM
"N14A: alanine-scanning mutant N14A of Imperacalcin (GDCLPHLKRCKADADCCGKKCKRRGTNAEKRCR; ends and bridges not checked; cysteine pairing not given here; UniProt P59868 1-33, looked up, variant N14A)",influence of mutation on binding affinity,RyR1,almost no influence on binding affinity
Opicalcin1 (from UniProt P60252),Kd,[2],0.3 nM
Opicalcin2 (from UniProt P60253),Kd,[2],3.2 nM
"Opicalcin2: calcin from Opistophthalmus carinatus, UniProt P60253 (GDCLPHLKRCKENNDCCSKKCKRRGANPEKRCR; ends and bridges not checked; cysteine pairing not given here; UniProt P60253 34-66, looked up)",binding affinity vs ability to stimulate Ca2+ release,SR Ca2+ release (RyR1),strong binding affinity but weaker ability to stimulate Ca^2+ release
Urocalcin (from UniProt L0GBR1),Kd,[2],376 nM
Vejocalcin (from UniProt P0DPT1),Kd,[2],3.7 nM
